Legend:
[1] = tested on: Botryotinia fuckeliana (Botrytis cinerea); assay: Botryotinia fuckeliana (Botrytis cinerea) / liquid culture (gray mould); type: cell-based; settings: Vogels broth, 24° C., 3-4 days after application, read-out: control of Botryotinia fuckeliana (inhibition of growth, photometric)
Method: Botryotinia Fuckeliana (Botrytis cinerea)/Liquid Culture (Gray Mould): Conidia of the fungus from cryogenic storage were directly mixed into nutrient broth (Vogels broth). After placing a DMSO solution of test compound into a 96-well microtiter plate at an application rate of 200 ppm, the nutrient broth containing the fungal spores was added. The test plates were incubated at 24° C. and the inhibition of growth was determined photometrically 3-4 days after application.

Pyrenophora teres = Pyrenophora teres / barley / leaf disc preventative (net blotch); type: in vivo; settings: foliar, barley leaf segments cv Hasso, inoculated two days after application, assessed 5-7 days after application, read-out: control of Pyrenophora teres (disease control compared to untreated)
Method: Pyrenophora Teres/Barley/Leaf Disc Preventative (Net Blotch): Barley leaf segments cv Hasso are placed on agar in a 24-well plate and sprayed with formulated test compound diluted in water at an application rate of 200 ppm. The leaf segments are inoculated with a spore suspension of the fungus two days after application of the test solution. The inoculated leaf segments are incubated at 20° C. and 65% relative humidity under a light regime of 12/12 h (light/dark) in a climate cabinet and the activity of a compound is assessed as disease control compared to untreated when an appropriate level of disease damage appears in untreated check leaf segments (5-7 days after application).

Gaeumannomyces graminis = Gaeumannomyces graminis / liquid culture (take-all of cereals); type: cell-based; settings: PDB, 24° C., 4-5 days after application, read-out: control of Gaeumannomyces graminis (inhibition of growth, photometric)
Method: Gaeumannomyces graminis/Liquid Culture (Take-all of Cereals): Mycelial fragments of the fungus from cryogenic storage were directly mixed into nutrient broth (PDB potato dextrose broth). After placing a DMSO solution of test compound into a 96-well microtiter plate at an application rate of 200 ppm, the nutrient broth […], containing the fungal spores is added. The test plates were incubated at 24° C. and the inhibition of growth was determined photometrically 4-5 days after application.

[2] = tested on: Thanatephorus cucumeris (Rhizoctonia solani); assay: Thanatephorus cucumeris (Rhizoctonia solani) / liquid culture (foot rot, damping-off); type: cell-based; settings: PDB, 24° C., 3-4 days after application, read-out: control of Thanatephorus cucumeris (inhibition of growth, photometric)
Method: Thanatephorus cucumeris (Rhizoctonia solani)/Liquid Culture (Foot Rot, Damping-Off): Mycelia fragments of a newly grown liquid culture of the fungus are directly mixed into nutrient broth (PDB potato dextrose broth). After placing a DMSO solution of the test compounds into a 96-well microtiter plate at an application rate of 200 ppm, the nutrient broth containing the fungal material was added. The test plates were incubated at 24° C. and the inhibition of growth was determined photometrically 3-4 days after application.

[3] = tested on: Mycosphaerella graminicola (Septoria tritici); assay: Mycosphaerella graminicola (Septoria tritici) / liquid culture (Septoria blotch); type: cell-based; settings: Zymoseptoria tritici, PDB, 24° C., 4-5 days after application, read-out: control of Mycosphaerella graminicola (inhibition of growth, photometric)
Method: Mycosphaerella graminicola (Septoria tritici)/Liquid Culture (Septoria Blotch): Conidia of the fungus from cryogenic storage were directly mixed into nutrient broth (PDB potato dextrose broth). After placing a DMSO solution of test compound into a 96-well microtiter plate at an application rate of 200 ppm, the nutrient broth containing the fungal spores was added. The test plates were incubated at 24° C. and the inhibition of growth was determined photometrically 4-5 days after application.

[4] = tested on: Puccinia recondita f. sp. Tritici; assay: Puccinia recondita f. sp. tritici / wheat / leaf disc preventative (brown rust); type: in vivo; settings: foliar, wheat leaf segments cv Kanzler, inoculated 1 day after application, assessed 7-9 days after application, read-out: control of Puccinia recondita f. sp. Tritici (percent disease control compared to untreated)
Method: Puccinia recondita f. Sp. Tritici/Wheat/Leaf Disc Preventative (Brown Rust): Wheat leaf segments cultivated variety (cv) Kanzler were placed on agar in 24-well plates and sprayed with formulated test compound diluted in water at an application rate of 200 ppm. The leaf disks were inoculated with a spore suspension of the fungus 1 day after application. The inoculated leaf segments were incubated at 19° C. and 75% relative humidity under a light regime of 12/12 h (light/dark) in a climate cabinet and the activity of a compound was assessed as percent disease control compared to untreated when an appropriate level of disease damage appears in untreated check leaf segments (7-9 days after application).

[5] = tested on: Monographella nivalis (Microdochium nivale); assay: Monographella nivalis (Microdochium nivale) / liquid culture (foot rot cereals); type: cell-based; settings: PDB, 24° C., 4-5 days after application, read-out: control of Monographella nivalis (inhibition of growth, photometric)
Method: Monographella nivalis (Microdochium nivale)/Liquid Culture (Foot Rot Cereals): Conidia of the fungus from cryogenic storage were directly mixed into nutrient broth (PDB potato dextrose broth). After placing a DMSO solution of test compound into a 96-well microtiter plate at an application rate of 200 ppm, the nutrient broth containing the fungal spores was added. The test plates were incubated at 24° C. and the inhibition of growth was determined photometrically 4-5 days after application.

[6] = tested on: Glomerella lagenarium (Colletotrichum lagenarium); assay: Glomerella lagenarium (Colletotrichum lagenarium) / liquid culture (anthracnose); type: cell-based; settings: Colletotrichum orbiculare, PDB, 24° C., 3-4 days after application, read-out: control of Glomerella lagenarium (inhibition of growth, photometric)
Method: Glomerella lagenarium (Colletotrichum lagenarium)/Liquid Culture (Anthracnose): Conidia of the fungus from cryogenic storage were directly mixed into nutrient broth (PDB potato dextrose broth). After placing a DMSO solution of test compound into a 96-well microtiter plate at an application rate of 200 ppm, the nutrient broth containing the fungal spores was added. The test plates were incubated at 24° C. and the inhibition of growth is measured photometrically 3-4 days after application.

Nc1ncnn1-c1nc2cnccc2n1C1CC1 [Compound 1, 2-(1-cyclopropylimidazo[4,5-c]pyridin-2-yl)-1,2,4-triazol-3-amine]
≥ 80%: inhibition at 20 ppm [1] | pest or weed control at 200 ppm (Pyrenophora teres) | inhibition at 20 ppm (Gaeumannomyces graminis) | inhibition at 20 ppm [2] | inhibition at 20 ppm [3]

CCn1c(-n2ncnc2N)nc2cncc(-c3ccc(-c4ccc(F)cc4)nc3)c21 [Compound 54, 2-[1-ethyl-7-[6-(4-fluorophenyl)pyridin-3-yl]imidazo[4,5-c]pyridin-2-yl]-1,2,4-triazol-3-amine]
≥ 80%: pest or weed control at 200 ppm [4] | inhibition at 20 ppm [1] | inhibition at 20 ppm [2] | inhibition at 20 ppm [3]

CCn1c(-n2ncnc2N)nc2cncc(-c3ccc(OC)nc3OC)c21 [Compound 56, 2-[7-(2,6-dimethoxypyridin-3-yl)-1-ethylimidazo[4,5-c]pyridin-2-yl]-1,2,4-triazol-3-amine]
≥ 80%: pest or weed control at 200 ppm [4] | inhibition at 20 ppm [1] | pest or weed control at 200 ppm (Pyrenophora teres) | inhibition at 20 ppm [2] | inhibition at 20 ppm [3]

CCn1c(-n2ncnc2N)nc2cncc(-c3cccc(C)c3C)c21 [Compound 82, 2-[7-(2,3-dimethylphenyl)-1-ethylimidazo[4,5-c]pyridin-2-yl]-1,2,4-triazol-3-amine]
≥ 80%: pest or weed control at 200 ppm [4] | inhibition at 20 ppm [1] | pest or weed control at 200 ppm (Pyrenophora teres) | inhibition at 20 ppm (Gaeumannomyces graminis) | inhibition at 20 ppm [2] | inhibition at 20 ppm [3]

CCn1c(-n2ncnc2N)nc2cncc(-c3ccc(F)cc3C)c21 [Compound 92, 2-[1-ethyl-7-(4-fluoro-2-methylphenyl)imidazo[4,5-c]pyridin-2-yl]-1,2,4-triazol-3-amine]
≥ 80%: inhibition at 20 ppm [1] | pest or weed control at 200 ppm (Pyrenophora teres) | inhibition at 20 ppm (Gaeumannomyces graminis) | inhibition at 20 ppm [2] | inhibition at 20 ppm [3]

CCn1c(-n2ncnc2N)nc2cncc(-c3ccc(F)cc3OC)c21 [Compound 95, 2-[1-ethyl-7-(4-fluoro-2-methoxyphenyl)imidazo[4,5-c]pyridin-2-yl]-1,2,4-triazol-3-amine]
≥ 80%: pest or weed control at 200 ppm [4] | inhibition at 20 ppm (Gaeumannomyces graminis) | inhibition at 20 ppm [2] | inhibition at 20 ppm [5] | inhibition at 20 ppm [3]

CCn1c(-n2ncnc2N)nc2cncc(-c3cccc(Cl)c3C)c21 [Compound 99, 2-[7-(3-chloro-2-methylphenyl)-1-ethylimidazo[4,5-c]pyridin-2-yl]-1,2,4-triazol-3-amine]
≥ 80%: pest or weed control at 200 ppm [4] | inhibition at 20 ppm [1] | pest or weed control at 200 ppm (Pyrenophora teres) | inhibition at 20 ppm (Gaeumannomyces graminis) | inhibition at 20 ppm [2] | inhibition at 20 ppm [3]

Nc1ncnn1-c1nc2cncc(-c3ccccc3F)c2n1C1CCCCC1 [Compound 127, 2-[1-cyclohexyl-7-(2-fluorophenyl)imidazo[4,5-c]pyridin-2-yl]-1,2,4-triazol-3-amine]
≥ 80%: inhibition at 20 ppm (Gaeumannomyces graminis)

CCn1c(-n2ncnc2N)nc2cncc(C#N)c21 [Compound 128, 2-(5-amino-1,2,4-triazol-1-yl)-1-ethylimidazo[4,5-c]pyridine-7-carbonitrile]
≥ 80%: inhibition at 20 ppm (Gaeumannomyces graminis) | inhibition at 20 ppm [2]

CCCn1c(-n2ncnc2N)nc2cncc(C#N)c21 [Compound 129, 2-(5-amino-1,2,4-triazol-1-yl)-1-propylimidazo[4,5-c]pyridine-7-carbonitrile]
≥ 80%: inhibition at 20 ppm [6]

N#Cc1cncc2nc(-n3ncnc3N)n(C3CCCCC3)c12 [Compound 131, 2-(5-amino-1,2,4-triazol-1-yl)-1-cyclohexylimidazo[4,5-c]pyridine-7-carbonitrile]
≥ 80%: inhibition at 20 ppm [6]

CCCCCCO/N=C(\C)c1cncc2nc(-n3ncnc3N)n(CC)c12 [Compound 148]
≥ 80%: pest or weed control at 200 ppm (Pyrenophora teres) | inhibition at 20 ppm [2] | inhibition at 20 ppm [6] | inhibition at 20 ppm [3]

CCn1c(-n2ncnc2N)nc2cncc(/C(C)=N/OCC=C(C)C)c21 [Compound 157]
≥ 80%: pest or weed control at 200 ppm [4] | pest or weed control at 200 ppm (Pyrenophora teres) | inhibition at 20 ppm [2] | inhibition at 20 ppm [6] | inhibition at 20 ppm [3]

CCn1c(-n2ncnc2N)nc2cncc(/C(C)=N/OC(C)C)c21 [Compound 167]
≥ 80%: pest or weed control at 200 ppm [4] | pest or weed control at 200 ppm (Pyrenophora teres) | inhibition at 20 ppm [2] | inhibition at 20 ppm [3]

CCn1c(-n2ncnc2N)nc2cncc(C(C)=NOc3ccccc3)c21 [Compound 168]
≥ 80%: pest or weed control at 200 ppm [4] | pest or weed control at 200 ppm (Pyrenophora teres) | inhibition at 20 ppm [2] | inhibition at 20 ppm [3]

C/C=C/CO/N=C(\C)c1cncc2nc(-n3ncnc3N)n(CC)c12 [Compound 177]
≥ 80%: inhibition at 20 ppm [1] | inhibition at 20 ppm [2] | inhibition at 20 ppm [5] | inhibition at 20 ppm [3]

CCCn1c(-n2ncnc2N)nc2cncc(/C(C)=N/OC/C=C(\C)Cl)c21 [Compound 185]
≥ 80%: inhibition at 20 ppm [1] | pest or weed control at 200 ppm (Pyrenophora teres) | inhibition at 20 ppm [2] | inhibition at 20 ppm [5] | inhibition at 20 ppm [3]

CCCn1c(-n2ncnc2N)nc2cncc(/C(C)=N/OCC=C(Cl)Cl)c21 [Compound 187]
≥ 80%: pest or weed control at 200 ppm [4] | inhibition at 20 ppm (Gaeumannomyces graminis) | inhibition at 20 ppm [2] | inhibition at 20 ppm [3]

CCCn1c(-n2ncnc2N)nc2cncc(/C(C)=N/OCC=C(C)C)c21 [Compound 189]
≥ 80%: pest or weed control at 200 ppm [4] | inhibition at 20 ppm [2] | inhibition at 20 ppm [5] | inhibition at 20 ppm [3]

Source: patent publication US9512120B2, “Microbicidally active imidazopyridine derivatives” (Syngenta Participations AG, priority 2013, dated 2016)
